Reference: patent US9133168B2, “Pyrimidine derivatives, preparation thereof, and pharmaceutical use thereof as akt(pkb) phosphorylation inhibitors” (SANOFI, priority 2010, dated 2015)

These compounds were tested on AKT protein phosphorylated on serine 473 (P-AKT-S473) in PC3 human prostate carcinoma cells (assay: pAKT expression in PC3 human prostate carcinoma cells, MSD Multi-spot Biomarker detection (Test A)). Settings: Homo sapiens, PC-3, PC3 cells, 1 to 2 h incubation, P-AKT-S473, absolute IC50, mean of two independent experiments.
Type: cell-based
Outline: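 Lysate pAKT-S473 measured by electrochemiluminescent sandwich immunoassay; inhibition versus cell-free background and DMSO-only wells, IC50 averaged over two experiments.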

Row | SMILES | IC50
1 | CN1CCN(c2cccc3c2CCN3C(=O)Cc2nc(N3CCOCC3)cc(=O)[nH]2)CC1 [Example 26d, 2-{2-[4-(4-methylpiperazin-1-yl)-2,3-dihydro-1H-indol-1-yl]-2-oxoethyl}-6-(morpholin-4-yl)pyrimidin-4(3H)-one] | 167 nM
2 | CC(C)[C@@H]1Cc2ccccc2N1C(=O)Cc1nc(N2CCOCC2)cc(=O)[nH]1 [Example 40c, (+)-2-[2-(2-isopropyl-2,3-dihydroindol-1-yl)-2-oxoethyl]-6-morpholin-4-yl-3H-pyrimidin-4-one] | 243 nM
3 | Cn1c(CC(=O)N2CCc3c(Cl)cccc32)nc(N2CCOCC2)cc1=S [Example 7e, 1-(4-chloro-2,3-dihydroindol-1-yl)-2-(1-methyl-4-morpholin-4-yl-6-thioxo-1,6-dihydropyrimidin-2-yl)ethanone] | 33 nM
4 | O=C(Cc1nc(N2CCOCC2)cc(=O)[nH]1)N1CCc2c(-c3ccccc3F)cccc21 [Example 19d, 2-{2-[4-(2-fluorophenyl)-2,3-dihydro-1H-indol-1-yl]-2-oxoethyl}-6-(morpholin-4-yl)pyrimidin-4(3H)-one] | 23 nM
5 | O=C(Cc1nc(N2CCOCC2)cc(=O)[nH]1)N1CCc2c(OC(F)(F)F)cccc21 [Example 3d, 6-(morpholin-4-yl)-2-{2-oxo-2-[4-(trifluoromethoxy)-2,3-dihydro-1H-indol-1-yl]ethyl}pyrimidin-4(3H)-one] | 54 nM
6 | Cn1c(CC(=O)N2CC3(CCOCC3)c3ccccc32)nc(N2CCOCC2)cc1=O [Example 22d, 3-methyl-6-(morpholin-4-yl)-2-[2-oxo-2-(2′,3′,5′,6′-tetrahydrospiro[indole-3,4′-pyran]-1(2H)-yl)ethyl]pyrimidin-4(3H)-one] | 106 nM
7 | O=C(Cc1nc(N2CCOCC2)cc(=O)[nH]1)N1CC2(CC2)c2ccccc21 [Example 1d, 6-(morpholin-4-yl)-2-[2-oxo-2-(spiro[cyclopropan-1,3′-indol]-1′(2′H)-yl)ethyl]pyrimidin-4(3H)-one] | 26 nM
8 | CC1CN(c2cc(=O)[nH]c(CC(=O)N3c4ccccc4C[C@@H]3C)n2)CCO1 (single isomer, unassigned; (+)) [Example 29b] | 24 nM
9 | CCC1CN(c2cc(=O)[nH]c(CC(=O)Nc3ccc(F)cc3)n2)CCO1 (racemic) [Example 14b, (±)-2-[4-(2-ethylmorpholin-4-yl)-6-oxo-1,6-dihydropyrimidin-2-yl]-N-(4-fluorophenyl)acetamide] | 280 nM
10 | Cn1c(CC(=O)N2CCc3c(F)cccc32)nc(N2CCOCC2)c(F)c1=O [Example 3a, 5-fluoro-2-[2-(4-fluoro-2,3-dihydro-1H-indol-1-yl)-2-oxoethyl]-3-methyl-6-(morpholin-4-yl)pyrimidin-4(3H)-one] | 158 nM

Second part, the compound after the results:

Row | IC50 | SMILES
11 | 211 nM | CC1Cc2cc(F)c(F)cc2N1C(=O)Cc1nc(N2CCOCC2)c(F)c(=O)n1C (stereo not drawn) [Example 26a, 5-fluoro-2-[2-((+)-5,6-difluoro-2-methyl-2,3-dihydroindol-1-yl)-2-oxoethyl]-3-methyl-6-morpholin-4-yl-3H-pyrimidin-4-one]
12 | 22 nM | C[C@H]1Cc2ccccc2N1C(=O)Cc1nc(N2CCOCC2)cc(=S)[nH]1 [Example 1e, 1-((S)-2-methyl-2,3-dihydroindol-1-yl)-2-(4-morpholin-4-yl-6-thioxo-1,6-dihydropyrimidin-2-yl)ethanone]

Same assay, conditions: PC3 cells, 1 to 2 h incubation, P-AKT-S473, absolute IC50, mean of two independent experiments

Row | SMILES | IC50
13 | O=C(Cc1nc(N2CCOC(CF)C2)cc(=O)[nH]1)N1CCc2c(F)cccc21 (stereo not shown) [Example 6b, 2-[2-(4-fluoro-2,3-dihydroindol-1-yl)-2-oxoethyl]-6-(2-fluoromethylmorpholin-4-yl)-3H-pyrimidin-4-one] | 58 nM
14 | O=C(Cc1nc(N2CCOCC2)cc(=O)[nH]1)N1c2ccccc2CC1C1CC1 (single isomer, unassigned; (-)) [Example 35d, (−)-2-[2-(2-cyclopropyl-2,3-dihydroindol-1-yl)-2-oxoethyl]-6-morpholin-4-yl-3H-pyrimidin-4-one] | 5 nM
15 | O=C(Cc1nc(N2CCOC(CO)C2)cc(=O)[nH]1)N1CCc2c(Cl)cccc21 (single isomer, unassigned; (+)) [Example 26b, (+)-2-[2-(4-Chloro-2,3-dihydroindol-1-yl)-2-oxoethyl]-6-(2-hydroxymethylmorpholin-4-yl)-3H-pyrimidin-4-one] | 240 nM

Continued, values first:

Row | IC50 | SMILES
16 | 22 nM | CC1Cc2c(O)cccc2N1C(=O)Cc1nc(N2CCOCC2)cc(=O)[nH]1 (single isomer, unassigned; (-)) [Example 10c, (−)-2-{2-[4-hydroxy-2-methyl-2,3-dihydro-1H-indol-1-yl]-2-oxoethyl}-6-(morpholin-4-yl)pyrimidin-4(3H)-one]
17 | 162 nM | CC1Cc2cc(F)c(F)cc2N1C(=O)Cc1nc(N2CCOCC2)c(F)c(=O)[nH]1 (stereo not drawn) [Example 13a, 2-[2-((−)-5,6-difluoro-2-methyl-2,3-dihydroindol-1-yl)-2-oxoethyl]-5-fluoro-6-morpholin-4-yl-3H-pyrimidin-4-one]
18 | 5 nM | CC1Cc2c(Cl)cccc2N1C(=O)Cc1nc(N2CCOCC2)cc(=O)[nH]1 (stereo not shown) [Example 1c, 2-[2-(4-chloro-2-methyl-2,3-dihydro-1H-indol-1-yl)-2-oxoethyl]-6-(morpholin-4-yl)pyrimidin-4(3H)-one]
19 | 77 nM | CC1Cc2ccc(F)cc2N1C(=O)Cc1nc(N2CCOCC2)c(F)c(=O)[nH]1 (stereo not drawn) [Example 33a, 5-Fluoro-2-[2-((+)-6-fluoro-2-methyl-2,3-dihydroindol-1-yl)-2-oxoethyl]-6-morpholin-4-yl-3H-pyrimidin-4-one]
20 | 9 nM | CC1Cc2ccccc2N1C(=O)Cc1nc(N2CCOCC2)cc(=O)[nH]1 (single isomer, unassigned; (-)) [Example 22b, (−)-2-[2-(2-methyl-2,3-dihydroindol-1-yl)-2-oxoethyl]-6-morpholin(D8)-4-yl-3H-pyrimidin-4-one]
21 | 13 nM | O=C(Cc1nc(N2CCOCC2)cc(=O)[nH]1)N1c2ccccc2CC1CF (stereo not drawn) [Example 40d, 2-[2-((−)-2-Fluoromethyl-2,3-dihydroindol-1-yl)-2-oxoethyl]-6-morpholin-4-yl-3H-pyrimidin-4-one]
22 | 39 nM | CC1Cc2c(Br)cccc2N1C(=O)Cc1nc(N2CCOCC2)cc(=O)[nH]1 (single isomer, unassigned; (+)) [Example 25c, (+)-2-{2-[4-bromo-2-methyl-2,3-dihydro-1H-indol-1-yl]-2-oxoethyl}-6-(morpholin-4-yl)pyrimidin-4(3H)-one]
23 | 2 nM | CC1Cc2cc(F)c(F)cc2N1C(=O)Cc1nc(N2CCOCC2)cc(=O)[nH]1 (stereo not shown) [Example 22c]
24 | 32 nM | CC1Cc2cc(F)c(F)cc2N1C(=O)Cc1nc(N2CCOCC2)cc(=O)n1C (stereo not drawn) [Example 23c, 2-{2-[(−)-5,6-difluoro-2-methyl-2,3-dihydro-1H-indol-1-yl]-2-oxoethyl}-3-methyl-6-(morpholin-4-yl)pyrimidin-4(3H)-one]

Same assay, conditions: PC3 cells, 1 to 2 h incubation, P-AKT-S473, absolute IC50, mean of two independent experiments; listed as 27

Row | IC50 | SMILES
25 | 435 nM | O=C(Cc1nc(N2CCOCC2)cc(=O)[nH]1)N1c2ccccc2CC1c1ccc(F)cc1 (single isomer, unassigned; (+)) [Example 27d, (+)-2-{2-[2-(4-fluorophenyl)-2,3-dihydro-1H-indol-1-yl]-2-oxoethyl}-6-(morpholin-4-yl)pyrimidin-4(3H)-one]
